We go through 1 compound from patent US20150104868A1, “Methods of Maintaining and Improving Biological Cell Function and Activity” (GARGILL INCORPORATED, priority 2012, published 2015).

Data set [1] in a line: Human study in patients with Type 2 diabetes mellitus (blood glucose, insulin, C-peptide). Format: in vivo. To be noted: Type 2 diabetes patients, 12 g three times daily 28 days; before vs 2 hrs after 12 g intake. Here is the method:
A human study was conducted in patients with Type 2 diabetes mellitus. Patients were enrolled who were otherwise healthy patients with Type 2 diabetes mellitus as defined by fasting blood glucose >125 mg/dl or with ongoing treatment for Type 2 diabetes mellitus with the exception of insulin. […] Two hours after, blood drawings were taken again. […] After testing each variable for normality, a paired t-test was performed to determine statistical significance. For variables with a non-normal distribution, a Wilcoxon signed rank test was used. All analyses were performed using SPSS (IBM, version 19). Compliance was determined based on a count of empty sachets returned by study participants. Twenty-four subjects were enrolled and none withdrew from the study.

In the next data set the test system is 7B2, PC1/3, PC2. The data set can be described thus: RT-PCR gene expression of insulin production related genes in 1.1E7 cells. Format: cell-based, human. The settings on record: 1.1E7 cells, 10, 30, 45 mM glucose, 24 hours or 7 days, 5 mM ERT. Here is the method: Cell culture: Human 1.1E7 beta cells were cultured in RPMI 1640 medium containing 10% fetal calf serum, 2 mM L-Glutamine and 1% penicillin/streptomycin. Cells were maintained at 37° C. in a 5% CO2 atmosphere.
Gene expression analysis: RNA was isolated from Qiazol suspended cells according to the manufacturer's protocol and quantified spectrophotometrically. Reverse transcription reaction was performed using 500 ng of RNA, which was reverse-transcribed into cDNA using iScript cDNA synthesis kit. Next, real time PCR was performed with a BioRad MyiQ iCycler Single Color RT-PCR detection system using Sensimix™Plus SYBR and Fluorescein, 5 μl diluted (10×) cDNA, and 0.3 μM primers in a total volume of 25 μl. PCR was conducted as follows: denaturation at 95° C. for 10 minutes, followed by 40 cycles of 95° C. for 15 seconds and 60° C. for 45 seconds. After PCR a melt curve (60-95° C.) was produced for product identification and purity. Actin was included as internal control. Data were analyzed using the MyIQ software system (Bio-Rad Laboratories BV, Veenendaal, the Netherlands) and were expressed as relative gene expression (fold change) using the 2^ΔΔCt method.
PC1/3 and PC2 are proprotein or prohormone covertases. […] 7B2 is a small neuroendocrine protein that is required for the production of active prohormone convertase 2 (PC2)

The conditions of data set [2]: in vivo, po; cited from earlier work.

`OC[C@@H](O)[C@@H](O)CO` [ERT, meso-1,2,3,4-tetrahydroxybutane]: in data set [1], the “blood C-peptide levels” value is “increase in blood C-peptide levels”, the blood glucose levels result is recorded as “borderline significant decrease in blood glucose levels” and the blood insulin levels entry is recorded as “non-significant increase in insulin levels”. The “gene expression of 7B2, PC1/3 and PC2” value in the data set on 7B2, PC1/3, PC2 was “improved the expression of genes involved in the conversion of (pre)proinsulin to insulin”. Besides, in data set [2], the excretion result is reported as “excreted unchanged in the urine” and the metabolism result was “not metabolized”.
